According to US11767341B2, “Lincosamide antibiotics and uses thereof” (President and Fellows of Harvard College, priority 2017, dated 2023):
≈ marks a conversion by molar mass, not a printed value.

What follows are compounds tested on S. aureus ATCC 29213 (assay: MIC determination). Conditions: S. aureus ATCC 29213.
Assay type: cell-based
Work on `CSC1O[C@H]([C@H](NC(=O)[C@H]2NC[C@@H]3C[C@@H](c4ccc(C#N)cc4)CCO[C@H]32)[C@H](C)Cl)C(O)[C@@H](O)[C@H]1O` (stereo partly shown) [FSA-512081a] yielded an MIC of 0.25 µg/mL (≈ 0.463 µM).

Same assay, conditions: Staphylococcus aureus, ATCC29213
For `COc1ccc(C2CCO[C@@H]3[C@H](CN[C@@H]3C(=O)N[C@H]([C@H](C)Cl)[C@H]3OC(SC)[C@H](O)C(O)C3O)C2)cc1` (stereo partly shown) [FSA-511045], the MIC was 0.5 µg/mL (≈ 0.917 µM).

Same assay, conditions: Staphylococcus aureus, ATCC29213, S. aureus ATCC 29213; read-out: MIC
`CSC1O[C@H]([C@H](NC(=O)[C@H]2NC[C@@H]3CC=CCO[C@H]32)[C@H](C)Sc2ccc(-c3cccnc3)cc2)C(O)[C@@H](O)[C@H]1O` (stereo partly shown) [FSA-213061] gave an MIC of 0.25 µg/mL (≈ 0.425 µM).

Each compound was assayed on S. aureus BAA 977 iErmA (assay: MIC determination). Conditions: Staphylococcus aureus, BAA977.
Assay type: cell-based
`CSC1O[C@H]([C@H](NC(=O)[C@H]2NC[C@@H]3CC=CCO[C@H]32)[C@H](C)Sc2ccc(-c3cccnc3)cc2)C(O)[C@@H](O)[C@H]1O` (stereo partly shown) [FSA-213061] gave an MIC of 0.25 µg/mL (≈ 0.425 µM). With `CSC1O[C@H]([C@H](NC(=O)[C@H]2NC[C@@H]3C[C@@H](c4ccc(C#N)cc4)CCO[C@H]32)[C@H](C)Cl)C(O)[C@@H](O)[C@H]1O` (stereo partly shown) [FSA-512081a] the MIC was 1 µg/mL (≈ 1.85 µM).

What follows are compounds tested on S. aureus MP-549 msr(a) USA 300 (assay: MIC determination). Conditions: Staphylococcus aureus, USA300, S. aureus MP-549 msr(a) USA 300.
Assay type: cell-based
`CSC1O[C@H]([C@H](NC(=O)[C@H]2NC[C@@H]3CC=CCO[C@H]32)[C@H](C)Sc2ccc(-c3cccnc3)cc2)C(O)[C@@H](O)[C@H]1O` (stereo partly shown) [FSA-213061] showed an MIC of 0.5 µg/mL (≈ 0.851 µM). With `COc1ccc(C2CCO[C@@H]3[C@H](CN[C@@H]3C(=O)N[C@H]([C@H](C)Cl)[C@H]3OC(SC)[C@H](O)C(O)C3O)C2)cc1` (stereo partly shown) [FSA-511045] the MIC was 0.25 µg/mL (≈ 0.459 µM).

Each compound was assayed on S. aureus MMX 3035 cErmA (assay: MIC determination). Conditions: Staphylococcus aureus, MMX3035CERMA; S. aureus MMX 3035 cErmA; read-out: MIC.
Assay type: cell-based
Work on `CSC1O[C@H]([C@H](NC(=O)[C@H]2NC[C@@H]3CC=CCO[C@H]32)[C@H](C)Sc2ccc(-c3cccnc3)cc2)C(O)[C@@H](O)[C@H]1O` (stereo partly shown) [FSA-213061] yielded an MIC of 64 µg/mL (≈ 109 µM). `CSC1O[C@H]([C@H](NC(=O)[C@H]2NC[C@@H]3C[C@@H](c4ccc(C#N)cc4)CCO[C@H]32)[C@H](C)Cl)C(O)[C@@H](O)[C@H]1O` (stereo partly shown) [FSA-512081a] showed an MIC of 128 µg/mL (≈ 237 µM).

Each compound was assayed on S. pneumoniae ATCC 49619 (assay: MIC determination). Conditions: Streptococcus pneumoniae, ATCC49619; S. pneumoniae ATCC 49619; read-out: MIC.
Assay type: cell-based
For `CSC1O[C@H]([C@H](NC(=O)[C@H]2NC[C@@H]3CC=CCO[C@H]32)[C@H](C)Sc2ccc(-c3cccnc3)cc2)C(O)[C@@H](O)[C@H]1O` (stereo partly shown) [FSA-213061], the MIC was at most 0.06 µg/mL. With `COc1ccc(C2CCO[C@@H]3[C@H](CN[C@@H]3C(=O)N[C@H]([C@H](C)Cl)[C@H]3OC(SC)[C@H](O)C(O)C3O)C2)cc1` (stereo partly shown) [FSA-511045] the MIC was at most 0.06 µg/mL.

What follows are compounds tested on S. pneumoniae MMX 3028 cErmB (assay: MIC determination). Conditions: Streptococcus pneumoniae, MMX3028CERMB; S. pneumoniae MMX 3028 cErmB; read-out: MIC.
Assay type: cell-based
Work on `CSC1O[C@H]([C@H](NC(=O)[C@H]2NC[C@@H]3CC=CCO[C@H]32)[C@H](C)Sc2ccc(-c3cccnc3)cc2)C(O)[C@@H](O)[C@H]1O` (stereo partly shown) [FSA-213061] yielded an MIC of 8 µg/mL (≈ 13.6 µM). In the case of `CSC1O[C@H]([C@H](NC(=O)[C@H]2NC[C@@H]3C[C@@H](c4ccc(C#N)cc4)CCO[C@H]32)[C@H](C)Cl)C(O)[C@@H](O)[C@H]1O` (stereo partly shown) [FSA-512081a], the MIC is reported as 4 µg/mL (≈ 7.41 µM).

What follows are compounds tested on S. pneumoniae MMX 3031 cMefA (assay: MIC determination). Conditions: Streptococcus pneumoniae, MMX3031CMEFA.
Assay type: cell-based
For `CSC1O[C@H]([C@H](NC(=O)[C@H]2NC[C@@H]3CC=CCO[C@H]32)[C@H](C)Sc2ccc(-c3cccnc3)cc2)C(O)[C@@H](O)[C@H]1O` (stereo partly shown) [FSA-213061], the MIC was 0.125 µg/mL (≈ 0.213 µM). `CSC1O[C@H]([C@H](NC(=O)[C@H]2NC[C@@H]3C[C@@H](c4ccc(C#N)cc4)CCO[C@H]32)[C@H](C)Cl)C(O)[C@@H](O)[C@H]1O` (stereo partly shown) [FSA-512081a] gave an MIC of under 0.06 µg/mL.

What follows are compounds tested on S. pyogenes ATCC 19615 (assay: MIC determination). Conditions: S. pyogenes ATCC 19615.
Assay type: cell-based
In the case of `CSC1O[C@H]([C@H](NC(=O)[C@H]2NC[C@@H]3C[C@@H](c4ccc(C#N)cc4)CCO[C@H]32)[C@H](C)Cl)C(O)[C@@H](O)[C@H]1O` (stereo partly shown) [FSA-512081a], the MIC is reported as at most 0.06 µg/mL.

Same assay, conditions: Streptococcus pyogenes, ATCC19615; S. pyogenes ATCC 19615; read-out: MIC
With `CSC1O[C@H]([C@H](NC(=O)[C@H]2NC[C@@H]3CC=CCO[C@H]32)[C@H](C)Sc2ccc(-c3cccnc3)cc2)C(O)[C@@H](O)[C@H]1O` (stereo partly shown) [FSA-213061] the MIC was at most 0.06 µg/mL. In the case of `COc1ccc(C2CCO[C@@H]3[C@H](CN[C@@H]3C(=O)N[C@H]([C@H](C)Cl)[C@H]3OC(SC)[C@H](O)C(O)C3O)C2)cc1` (stereo partly shown) [FSA-511045], the MIC is reported as at most 0.06 µg/mL.

The compounds below were run on S. pyogenes MMX 946 Macrolide-Resistant (assay: MIC determination). Conditions: Streptococcus pyogenes.
Assay type: cell-based
`CSC1O[C@H]([C@H](NC(=O)[C@H]2NC[C@@H]3C[C@@H](c4ccc(C#N)cc4)CCO[C@H]32)[C@H](C)Cl)C(O)[C@@H](O)[C@H]1O` (stereo partly shown) [FSA-512081a] was tested, and the MIC was 16 µg/mL (≈ 29.6 µM).

Same assay, conditions: Streptococcus pyogenes; S. pyogenes MMX 946 Macrolide-Resistant (MacRes); read-out: MIC
`CSC1O[C@H]([C@H](NC(=O)[C@H]2NC[C@@H]3CC=CCO[C@H]32)[C@H](C)Sc2ccc(-c3cccnc3)cc2)C(O)[C@@H](O)[C@H]1O` (stereo partly shown) [FSA-213061] was tested, and the MIC was 4 µg/mL (≈ 6.81 µM).

The compounds below were run on E. faecalis ATCC 29212 (assay: MIC determination). Conditions: Enterococcus faecalis, ATCC29212.
Assay type: cell-based
`CSC1O[C@H]([C@H](NC(=O)[C@H]2NC[C@@H]3C[C@@H](c4ccc(C#N)cc4)CCO[C@H]32)[C@H](C)Cl)C(O)[C@@H](O)[C@H]1O` (stereo partly shown) [FSA-512081a] showed an MIC of 0.5 µg/mL (≈ 0.926 µM).

Same assay, conditions: Enterococcus faecalis, ATCC29212, read-out: MIC
Work on `CSC1O[C@H]([C@H](NC(=O)[C@H]2NC[C@@H]3CC=CCO[C@H]32)[C@H](C)Sc2ccc(-c3cccnc3)cc2)C(O)[C@@H](O)[C@H]1O` (stereo partly shown) [FSA-213061] yielded an MIC of 16 µg/mL (≈ 27.2 µM). For `COc1ccc(C2CCO[C@@H]3[C@H](CN[C@@H]3C(=O)N[C@H]([C@H](C)Cl)[C@H]3OC(SC)[C@H](O)C(O)C3O)C2)cc1` (stereo partly shown) [FSA-511045], the MIC was 1 µg/mL (≈ 1.83 µM).

The compounds below were run on E. faecalis MMX 847 Macrolide-Resistant (assay: MIC determination). Conditions: Enterococcus faecalis; E. faecalis MMX 847 MacRes; read-out: MIC.
Assay type: cell-based
Compound `CSC1O[C@H]([C@H](NC(=O)[C@H]2NC[C@@H]3C[C@@H](c4ccc(C#N)cc4)CCO[C@H]32)[C@H](C)Cl)C(O)[C@@H](O)[C@H]1O` (stereo partly shown) [FSA-512081a] has an MIC of 64 µg/mL (≈ 119 µM).

Same assay, conditions: Enterococcus faecalis; E. faecalis MMX 847 Macrolide-Resistant (MacRes); read-out: MIC
Compound `CSC1O[C@H]([C@H](NC(=O)[C@H]2NC[C@@H]3CC=CCO[C@H]32)[C@H](C)Sc2ccc(-c3cccnc3)cc2)C(O)[C@@H](O)[C@H]1O` (stereo partly shown) [FSA-213061] has an MIC of over 64 µg/mL.

The compounds below were run on K. pneumoniae ATCC 10031 (assay: MIC determination). Conditions: Klebsiella pneumoniae, ATCC10031; K. pneumoniae ATCC 10031; read-out: MIC.
Assay type: cell-based
For `CSC1O[C@H]([C@H](NC(=O)[C@H]2NC[C@@H]3CC=CCO[C@H]32)[C@H](C)Sc2ccc(-c3cccnc3)cc2)C(O)[C@@H](O)[C@H]1O` (stereo partly shown) [FSA-213061], the MIC was 32 µg/mL (≈ 54.4 µM). With `COc1ccc(C2CCO[C@@H]3[C@H](CN[C@@H]3C(=O)N[C@H]([C@H](C)Cl)[C@H]3OC(SC)[C@H](O)C(O)C3O)C2)cc1` (stereo partly shown) [FSA-511045] the MIC was 16 µg/mL (≈ 29.4 µM).

Each compound was assayed on E. coli ATCC 25922 (assay: MIC determination). Conditions: Escherichia coli, ATCC25922, E. coli ATCC 25922; read-out: MIC.
Assay type: cell-based
`CSC1O[C@H]([C@H](NC(=O)[C@H]2NC[C@@H]3CC=CCO[C@H]32)[C@H](C)Sc2ccc(-c3cccnc3)cc2)C(O)[C@@H](O)[C@H]1O` (stereo partly shown) [FSA-213061] gave an MIC of over 64 µg/mL. With `COc1ccc(C2CCO[C@@H]3[C@H](CN[C@@H]3C(=O)N[C@H]([C@H](C)Cl)[C@H]3OC(SC)[C@H](O)C(O)C3O)C2)cc1` (stereo partly shown) [FSA-511045] the MIC was over 64 µg/mL.

The compounds below were run on E. coli MP-9 ΔTolC (assay: MIC determination). Conditions: not given.
Assay type: cell-based
With `CSC1O[C@H]([C@H](NC(=O)[C@H]2NC[C@@H]3C[C@@H](c4ccc(C#N)cc4)CCO[C@H]32)[C@H](C)Cl)C(O)[C@@H](O)[C@H]1O` (stereo partly shown) [FSA-512081a] the MIC was 4 µg/mL (≈ 7.41 µM).

Same assay, conditions: Escherichia coli
In the case of `CSC1O[C@H]([C@H](NC(=O)[C@H]2NC[C@@H]3CC=CCO[C@H]32)[C@H](C)Sc2ccc(-c3cccnc3)cc2)C(O)[C@@H](O)[C@H]1O` (stereo partly shown) [FSA-213061], the MIC is reported as 8 µg/mL (≈ 13.6 µM). Compound `COc1ccc(C2CCO[C@@H]3[C@H](CN[C@@H]3C(=O)N[C@H]([C@H](C)Cl)[C@H]3OC(SC)[C@H](O)C(O)C3O)C2)cc1` (stereo partly shown) [FSA-511045] has an MIC of 8 µg/mL (≈ 14.7 µM).

These compounds were tested on E. coli MP-74 LptD mutant (assay: MIC determination). Conditions: not given.
Assay type: cell-based
With `CSC1O[C@H]([C@H](NC(=O)[C@H]2NC[C@@H]3C[C@@H](c4ccc(C#N)cc4)CCO[C@H]32)[C@H](C)Cl)C(O)[C@@H](O)[C@H]1O` (stereo partly shown) [FSA-512081a] the MIC was 16 µg/mL (≈ 29.6 µM).

Same assay, conditions: Escherichia coli
Work on `CSC1O[C@H]([C@H](NC(=O)[C@H]2NC[C@@H]3CC=CCO[C@H]32)[C@H](C)Sc2ccc(-c3cccnc3)cc2)C(O)[C@@H](O)[C@H]1O` (stereo partly shown) [FSA-213061] yielded an MIC of 8 µg/mL (≈ 13.6 µM). With `COc1ccc(C2CCO[C@@H]3[C@H](CN[C@@H]3C(=O)N[C@H]([C@H](C)Cl)[C@H]3OC(SC)[C@H](O)C(O)C3O)C2)cc1` (stereo partly shown) [FSA-511045] the MIC was 32 µg/mL (≈ 58.7 µM).

These compounds were tested on H. influenzae ATCC 49247 (assay: MIC determination). Conditions: H. influenzae ATCC 49247.
Assay type: cell-based
For `CSC1O[C@H]([C@H](NC(=O)[C@H]2NC[C@@H]3C[C@@H](c4ccc(C#N)cc4)CCO[C@H]32)[C@H](C)Cl)C(O)[C@@H](O)[C@H]1O` (stereo partly shown) [FSA-512081a], the MIC was 16 µg/mL (≈ 29.6 µM).

Same assay, conditions: Haemophilus influenzae, ATCC49247; H. influenzae ATCC 49247; read-out: MIC
With `COc1ccc(C2CCO[C@@H]3[C@H](CN[C@@H]3C(=O)N[C@H]([C@H](C)Cl)[C@H]3OC(SC)[C@H](O)C(O)C3O)C2)cc1` (stereo partly shown) [FSA-511045] the MIC was 16 µg/mL (≈ 29.4 µM).
